Measurements published in ChEMBL document CHEMBL2074336, “Reversal of P-glycoprotein-associated multidrug resistance by ivermectin” (Biochem Pharmacol, 1997).
Values belong to the compound of their own block, whether it stands above or below them.

How the values were obtained:
Assay type in all cases: functional, cell membranes, Plasma membrane
Details in all cases: cem-vlb
[1] = biological target: T1, ATP-dependent translocase ABCB1 (Homo sapiens, UniProt P08183); assay: TP_TRANSPORTER: inhibition of IAAP photoaffinity labelling (IAAP: 0.02 uM, PSC-833: 100-fold molar excess) in plasma membranes from CEM/VLB1.0 cells
T1 sequence (P08183 whole entry): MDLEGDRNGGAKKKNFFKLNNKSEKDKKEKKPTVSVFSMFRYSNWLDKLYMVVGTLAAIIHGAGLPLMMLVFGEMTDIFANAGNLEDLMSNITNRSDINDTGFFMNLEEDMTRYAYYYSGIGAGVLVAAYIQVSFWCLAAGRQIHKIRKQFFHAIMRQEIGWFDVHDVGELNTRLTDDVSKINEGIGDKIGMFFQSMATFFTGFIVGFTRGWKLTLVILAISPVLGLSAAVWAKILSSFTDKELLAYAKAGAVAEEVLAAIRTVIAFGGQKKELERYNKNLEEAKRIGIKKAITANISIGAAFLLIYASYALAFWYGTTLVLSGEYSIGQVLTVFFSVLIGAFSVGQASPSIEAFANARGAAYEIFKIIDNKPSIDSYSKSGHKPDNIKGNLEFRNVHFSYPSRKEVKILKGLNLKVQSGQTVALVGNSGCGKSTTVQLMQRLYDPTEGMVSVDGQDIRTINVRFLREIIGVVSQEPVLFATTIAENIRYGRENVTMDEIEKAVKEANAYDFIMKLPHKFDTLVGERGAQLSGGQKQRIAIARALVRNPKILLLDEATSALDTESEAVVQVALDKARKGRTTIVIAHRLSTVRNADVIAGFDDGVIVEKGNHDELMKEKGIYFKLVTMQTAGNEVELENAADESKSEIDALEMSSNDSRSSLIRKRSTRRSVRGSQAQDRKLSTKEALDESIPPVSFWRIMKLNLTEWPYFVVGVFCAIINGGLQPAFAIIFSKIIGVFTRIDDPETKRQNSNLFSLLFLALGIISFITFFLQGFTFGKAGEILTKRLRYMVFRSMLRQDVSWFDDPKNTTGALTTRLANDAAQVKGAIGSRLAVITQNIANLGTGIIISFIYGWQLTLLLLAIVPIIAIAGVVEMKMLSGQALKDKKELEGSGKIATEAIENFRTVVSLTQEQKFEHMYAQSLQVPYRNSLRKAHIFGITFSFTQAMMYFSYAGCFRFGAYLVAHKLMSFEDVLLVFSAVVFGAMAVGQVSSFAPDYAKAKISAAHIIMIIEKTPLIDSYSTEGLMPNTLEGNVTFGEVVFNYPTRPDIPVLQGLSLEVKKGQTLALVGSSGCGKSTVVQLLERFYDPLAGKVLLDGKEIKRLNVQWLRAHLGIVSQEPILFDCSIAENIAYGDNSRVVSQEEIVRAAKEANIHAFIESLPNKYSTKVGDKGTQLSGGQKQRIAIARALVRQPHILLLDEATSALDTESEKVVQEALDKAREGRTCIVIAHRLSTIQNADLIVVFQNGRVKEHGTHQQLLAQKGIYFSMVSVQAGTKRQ

[2] = biological target: T1, ATP-dependent translocase ABCB1; assay: TP_TRANSPORTER: inhibition of Ivermectin binding (IVM: 0.2 uM, Vinblastine: 300-fold molar excess) in plasma membranes from CEM/VLB1.0 cells; set-up: scale not given: the % may be the effect or the level left
[3] = biological target: T1, ATP-dependent translocase ABCB1; assay: TP_TRANSPORTER: inhibition of Vinblastine binding (Vinblastine: 0.2 uM, IVM: 300-fold molar excess) in plasma membranes from CEM/VLB1.0 cells; set-up: scale not given: the % may be the effect or the level left
[4] = biological target: T1, ATP-dependent translocase ABCB1; assay: TP_TRANSPORTER: inhibition of IAAP photoaffinity labelling (IAAP: 0.02 uM, IVM: 100-fold molar excess) in plasma membranes from CEM/VLB1.0 cells; set-up: scale not given: the % may be the effect or the level left

Activity [1]: inhibitor [+]
Compound: C/C=C/C[C@@H](C)C(=O)[C@H]1C(=O)N[C@@H](C(C)C)C(=O)N(C)CC(=O)N(C)[C@@H](CC(C)C)C(=O)N[C@@H](C(C)C)C(=O)N(C)[C@@H](CC(C)C)C(=O)N[C@@H](C)C(=O)N[C@H](C)C(=O)N(C)[C@@H](CC(C)C)C(=O)N(C)[C@@H](CC(C)C)C(=O)N(C)[C@@H](C(C)C)C(=O)N1C [VALSPODAR]

Activity [2]: 44%
Compound: CC[C@]1(O)C[C@@H]2CN(CCc3c([nH]c4ccccc34)[C@@](C(=O)OC)(c3cc4c(cc3OC)N(C)[C@H]3[C@@](O)(C(=O)OC)[C@H](OC(C)=O)[C@]5(CC)C=CCN6CC[C@]43[C@@H]65)C2)C1 [VINBLASTINE]

Activity [3]: 0%
Activity [4]: 0%
Compound: IVERMECTIN
